Consider 16 compounds from patent publication US9708318B2, “Bicyclic heterocycles as FGFR4 inhibitors” (Incyte Corporation, priority 2015, dated 2017).

For one test, the target named is FGFR4 (Homo sapiens (Human), UniProt P22455). Kind of test: FGFR Enzymatic Assay (FRET peptide phosphorylation), FGFR4. The format is biochemical. The settings on record: for FGFR1/FGFR4 IC50 ratio / FGFR2/FGFR4 IC50 ratio / FGFR3/FGFR4 IC50 ratio: FGFR4 selectivity. As to the method:
(§1) The inhibitor potency of the exemplified compounds was measured in an enzyme assay that measures peptide phosphorylation using FRET measurements to detect product formation. Inhibitors were serially diluted in DMSO and a volume of 0.5 μL was transferred to the wells of a 384-well plate.
(§2) The enzymes were purchased from Millipore or Invitrogen.
(§3) GraphPad prism3 was used to analyze the data.

The next test has as its target FGFR2 (Homo sapiens (Human), UniProt P21802). The experiment in a line: FGFR Enzymatic Assay (FRET peptide phosphorylation), FGFR2. Type of test: biochemical. As to the method:
as §1, §2, §3

In another test the target is FGFR3 enzyme (Homo sapiens (Human), UniProt P22607). Kind of test: FGFR Enzymatic Assay (FRET peptide phosphorylation), FGFR3. Type of test: biochemical. The following applies: for IC50: read-out: FGFR3 IC50. How it is done: as §1, §3
FGFR3 enzyme, sequence (P22607 23-806): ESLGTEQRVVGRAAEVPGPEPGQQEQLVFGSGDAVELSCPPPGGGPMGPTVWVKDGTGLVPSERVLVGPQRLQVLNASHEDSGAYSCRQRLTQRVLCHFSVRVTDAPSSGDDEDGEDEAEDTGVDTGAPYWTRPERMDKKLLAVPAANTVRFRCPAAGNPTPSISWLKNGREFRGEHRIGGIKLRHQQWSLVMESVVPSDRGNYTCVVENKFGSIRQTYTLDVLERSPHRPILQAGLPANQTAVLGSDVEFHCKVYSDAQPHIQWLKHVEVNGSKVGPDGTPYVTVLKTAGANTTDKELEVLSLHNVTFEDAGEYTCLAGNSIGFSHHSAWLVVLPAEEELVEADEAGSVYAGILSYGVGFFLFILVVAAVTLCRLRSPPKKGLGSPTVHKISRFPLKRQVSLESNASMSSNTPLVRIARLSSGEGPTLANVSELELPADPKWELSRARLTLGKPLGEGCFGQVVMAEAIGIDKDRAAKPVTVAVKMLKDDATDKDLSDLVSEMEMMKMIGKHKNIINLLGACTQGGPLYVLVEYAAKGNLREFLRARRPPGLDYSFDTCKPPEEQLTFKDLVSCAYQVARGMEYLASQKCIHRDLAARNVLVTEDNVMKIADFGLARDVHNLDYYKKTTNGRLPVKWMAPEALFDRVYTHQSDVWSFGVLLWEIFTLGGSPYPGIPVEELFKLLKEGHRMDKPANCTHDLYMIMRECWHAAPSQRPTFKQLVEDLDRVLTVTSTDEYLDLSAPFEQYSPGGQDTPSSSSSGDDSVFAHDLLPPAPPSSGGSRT
The target of a further test is FGFR1 (Homo sapiens (Human), UniProt P11362). Kind of test: FGFR Enzymatic Assay (FRET peptide phosphorylation), FGFR1.
FGFR1, sequence (P11362 22-822): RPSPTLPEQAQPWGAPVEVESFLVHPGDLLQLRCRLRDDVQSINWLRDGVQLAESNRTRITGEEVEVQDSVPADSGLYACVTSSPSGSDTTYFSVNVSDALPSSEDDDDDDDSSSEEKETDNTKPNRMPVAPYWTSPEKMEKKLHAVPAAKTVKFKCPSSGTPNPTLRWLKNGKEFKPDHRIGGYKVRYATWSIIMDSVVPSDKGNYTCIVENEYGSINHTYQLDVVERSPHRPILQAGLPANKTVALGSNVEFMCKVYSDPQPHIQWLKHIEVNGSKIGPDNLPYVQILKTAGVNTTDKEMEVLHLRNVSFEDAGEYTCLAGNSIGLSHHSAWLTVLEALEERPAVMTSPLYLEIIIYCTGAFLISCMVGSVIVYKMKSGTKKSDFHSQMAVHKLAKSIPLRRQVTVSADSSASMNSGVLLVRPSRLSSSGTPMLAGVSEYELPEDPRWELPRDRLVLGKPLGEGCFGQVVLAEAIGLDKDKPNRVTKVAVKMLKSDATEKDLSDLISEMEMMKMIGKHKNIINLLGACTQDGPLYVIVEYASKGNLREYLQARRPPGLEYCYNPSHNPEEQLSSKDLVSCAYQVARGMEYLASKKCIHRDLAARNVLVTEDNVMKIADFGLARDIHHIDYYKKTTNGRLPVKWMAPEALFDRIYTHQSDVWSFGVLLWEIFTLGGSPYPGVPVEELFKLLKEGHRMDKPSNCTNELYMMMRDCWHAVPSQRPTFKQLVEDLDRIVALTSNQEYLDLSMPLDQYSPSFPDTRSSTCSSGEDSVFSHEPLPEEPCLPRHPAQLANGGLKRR
The mark [1] stands for this setting: pre-incubated for 5 to 10 minutes.
Setting [2] is: read-out: FGFR1 IC50, pre-incubated for 5 to 10 minutes.
Setting [3] is: read-out: FGFR1 IC50, pre-incubated for 4 hours.
Setting [4] is: FGFR1 IC50 (nM), pre-incubated for 5 to 10 minutes.
The mark [5] stands for this setting: FGFR1 IC50 (nM), pre-incubated for 4 hours.

Read-outs that look alike come from different tables or passages of the source. Where only a bound is given, the exact number is not on record here.

FGFR2, sequence (P21802 22-821): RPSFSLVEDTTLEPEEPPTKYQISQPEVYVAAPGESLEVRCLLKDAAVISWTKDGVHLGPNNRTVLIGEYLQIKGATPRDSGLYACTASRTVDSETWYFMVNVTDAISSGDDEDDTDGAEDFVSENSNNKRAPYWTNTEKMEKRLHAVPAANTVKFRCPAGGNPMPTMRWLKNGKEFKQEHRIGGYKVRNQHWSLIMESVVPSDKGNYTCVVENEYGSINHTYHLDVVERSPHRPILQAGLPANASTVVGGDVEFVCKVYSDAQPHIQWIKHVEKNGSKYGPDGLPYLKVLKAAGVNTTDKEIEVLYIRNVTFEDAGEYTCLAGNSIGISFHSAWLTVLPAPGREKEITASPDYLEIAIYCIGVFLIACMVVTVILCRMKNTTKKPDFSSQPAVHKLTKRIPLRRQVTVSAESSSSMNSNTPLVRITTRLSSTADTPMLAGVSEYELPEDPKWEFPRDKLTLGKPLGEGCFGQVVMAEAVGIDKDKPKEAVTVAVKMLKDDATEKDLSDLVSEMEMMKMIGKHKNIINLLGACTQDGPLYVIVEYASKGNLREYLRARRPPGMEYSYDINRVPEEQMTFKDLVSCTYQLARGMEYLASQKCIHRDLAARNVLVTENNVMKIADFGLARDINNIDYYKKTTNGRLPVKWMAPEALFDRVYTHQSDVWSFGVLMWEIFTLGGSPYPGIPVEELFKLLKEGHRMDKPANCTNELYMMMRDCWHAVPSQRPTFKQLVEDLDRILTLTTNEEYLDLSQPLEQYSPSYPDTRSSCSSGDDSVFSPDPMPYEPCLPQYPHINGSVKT
FGFR4, sequence (P22455 22-802): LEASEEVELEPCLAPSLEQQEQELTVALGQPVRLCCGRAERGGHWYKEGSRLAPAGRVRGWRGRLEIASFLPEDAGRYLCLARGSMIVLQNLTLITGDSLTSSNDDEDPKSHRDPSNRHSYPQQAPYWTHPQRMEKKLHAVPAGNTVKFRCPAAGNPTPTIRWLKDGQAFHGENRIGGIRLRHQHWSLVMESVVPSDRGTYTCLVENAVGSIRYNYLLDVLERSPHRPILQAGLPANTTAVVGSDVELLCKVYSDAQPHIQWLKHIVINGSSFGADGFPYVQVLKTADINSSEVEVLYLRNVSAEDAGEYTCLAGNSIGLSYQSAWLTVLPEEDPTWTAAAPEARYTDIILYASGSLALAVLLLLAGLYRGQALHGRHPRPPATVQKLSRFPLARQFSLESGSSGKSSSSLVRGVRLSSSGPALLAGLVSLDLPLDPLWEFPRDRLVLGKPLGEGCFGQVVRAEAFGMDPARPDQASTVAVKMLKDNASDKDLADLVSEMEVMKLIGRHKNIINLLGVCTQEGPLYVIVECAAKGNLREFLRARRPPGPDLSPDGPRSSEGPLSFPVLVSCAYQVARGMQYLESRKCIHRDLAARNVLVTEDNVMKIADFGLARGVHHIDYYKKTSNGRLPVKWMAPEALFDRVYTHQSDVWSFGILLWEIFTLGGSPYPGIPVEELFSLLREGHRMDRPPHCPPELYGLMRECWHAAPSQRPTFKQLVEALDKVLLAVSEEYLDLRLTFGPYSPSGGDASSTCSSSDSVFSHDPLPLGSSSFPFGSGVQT

Turning to `COc1cc(OC)c(F)c(N2Cc3cnc(-c4cc(N)ccc4C)cc3C3(CC3)C2=O)c1F` [Example 1, 6′-(5-amino-2-methylphenyl)-2′-(2,6-difluoro-3,5-dimethoxyphenyl)-1′H-spiro[cyclopropane-1,4′-[2,7]naphthyridin]-3′(2′H)-one], the “FGFR1/FGFR4 IC50 ratio” value on FGFR4 (setting [1]) and at FGFR4 (pre-incubated for 4 hours) was >25 throughout. The “FGFR2/FGFR4 IC50 ratio” value on FGFR4 (setting [1]) and on FGFR4 (pre-incubated for 4 hours) was >25 throughout. The figures for the “FGFR3/FGFR4 IC50 ratio” value on FGFR4 (setting [1]) and at FGFR4 (pre-incubated for 4 hours) were >50 and >25, respectively. The IC50 (as a rule, the concentration that inhibits the measured activity by half) was 30 to 200 nM at FGFR4 (setting [1]); 30 to 200 nM against FGFR4 (pre-incubated for 4 hours); > 200 nM at FGFR2 (setting [1]); > 200 nM at FGFR2 (pre-incubated for 4 hours); > 200 nM at FGFR3 enzyme; > 200 nM on FGFR1 (setting [2]). In addition, at FGFR1 (setting [3]), the IC50 is > 200 nM.
Consider `COc1cc(OC)c(F)c(N2Cc3cnc(-c4cc(N)c(F)cc4C)cc3C3(CC3)C2=O)c1F` [Example 2, 6′-(5-amino-4-fluoro-2-methylphenyl)-2′-(2,6-difluoro-3,5-dimethoxyphenyl)-1′H-spiro[cyclopropane-1,4′-[2,7]naphthyridin]-3′(2′H)-one], for which the “FGFR1/FGFR4 IC50 ratio” value at FGFR4 (setting [1]) and at FGFR4 (pre-incubated for 4 hours) was >10 each time. The “FGFR2/FGFR4 IC50 ratio” value on FGFR4 (setting [1]) and on FGFR4 (pre-incubated for 4 hours) was >10 throughout. For the same compound, the “FGFR3/FGFR4 IC50 ratio” value on FGFR4 (setting [1]) and at FGFR4 (pre-incubated for 4 hours) was >10 throughout. The 50% inhibitory concentration (IC50) is 30 to 200 nM on FGFR4 (setting [1]); 30 to 200 nM against FGFR4 (pre-incubated for 4 hours); > 200 nM at FGFR2 (setting [1]); > 200 nM against FGFR2 (pre-incubated for 4 hours); > 200 nM on FGFR3 enzyme (setting [1]); > 200 nM at FGFR3 enzyme (pre-incubated for 4 hours). For the same compound, the half-maximal inhibitory concentration (IC50) at FGFR1 (setting [2]) and at FGFR1 (setting [3]) was > 200 nM in each case.
Take `COc1cc(OC)c(F)c(N2Cc3cnc(-c4cc(N)ccc4C#N)cc3C3(CC3)C2=O)c1F` [Example 3, 4-amino-2-(2′-(2,6-difluoro-3,5-dimethoxyphenyl)-3′-oxo-2′,3′-dihydro-1′H-spiro[cyclopropane-1,4′-[2,7]naphthyridine]-6′-yl)benzonitrile]: the “FGFR1/FGFR4 IC50 ratio” value on FGFR4 (setting [1]) and at FGFR4 (pre-incubated for 4 hours) was >25 in each case. Also, the “FGFR2/FGFR4 IC50 ratio” value on FGFR4 (setting [1]) and at FGFR4 (pre-incubated for 4 hours) was >25 throughout. Besides, the “FGFR3/FGFR4 IC50 ratio” value on FGFR4 (setting [1]) is >25; on FGFR4 (pre-incubated for 4 hours) it was >10. The IC50 against FGFR4 (setting [1]) is 10 to 30 nM; against FGFR4 (pre-incubated for 4 hours) it was 10 to 30 nM; on FGFR2 (setting [1]), > 200 nM; against FGFR2 (pre-incubated for 4 hours) it was > 200 nM; at FGFR3 enzyme (setting [1]), > 200 nM; at FGFR3 enzyme (pre-incubated for 4 hours), > 200 nM. Besides, the IC50 at FGFR1 (setting [2]) and at FGFR1 (setting [3]) was > 200 nM throughout.
Consider `COc1cc(OC)c(F)c(N2Cc3cnc(-c4cncc(N)c4)cc3C3(CC3)C2=O)c1F` [Example 4, 6′-(5-aminopyridin-3-yl)-2′-(2,6-difluoro-3,5-dimethoxyphenyl)-1′H-spiro[cyclopropane-1,4′-[2,7]naphthyridin]-3′(2′H)-one], for which the “FGFR1/FGFR4 IC50 ratio” value on FGFR4 (setting [1]) is >10; on FGFR4 (pre-incubated for 4 hours), >25. The “FGFR2/FGFR4 IC50 ratio” value at FGFR4 (setting [1]) and on FGFR4 (pre-incubated for 4 hours) was >10 throughout. Also, the “FGFR3/FGFR4 IC50 ratio” value on FGFR4 (setting [1]) is reported as >5; at FGFR4 (pre-incubated for 4 hours) it was >10. The half-maximal inhibitory concentration (IC50) against FGFR4 (setting [1]) was < 10 nM; at FGFR4 (pre-incubated for 4 hours) it was < 10 nM; at FGFR2 (setting [1]) it was 10 to 30 nM; against FGFR2 (pre-incubated for 4 hours), 30 to 200 nM; on FGFR3 enzyme (setting [1]) it was 10 to 30 nM; at FGFR3 enzyme (pre-incubated for 4 hours), 30 to 200 nM. Also, the IC50 against FGFR1 (setting [4]) and at FGFR1 (setting [5]) was 30 to 200 nM each time. On FGFR3 enzyme (FGFR3 selectivity, pre-incubated for 4 hours), the “FGFR1/FGFR3 IC50 ratio” value is >1.
For the compound `COc1cc(OC)c(F)c(N2Cc3cnc(-c4cn(C)nc4C)cc3N(C3CC(=O)N(C)C3)C2=O)c1F` (centres unmarked) [Example 42, 3-(2,6-difluoro-3,5-dimethoxyphenyl)-7-(1,3-dimethyl-1H-pyrazol-4-yl)-1-(1-methyl-5-oxopyrrolidin-3-yl)-3,4-dihydropyrido[4,3-d]pyrimidin-2(1H)-one], the IC50 is […] against FGFR4 (pre-incubated for 4 hours), […] against FGFR2 (pre-incubated for 4 hours) and […] on FGFR1 (setting [3]).
Regarding `COc1cc(OC)c(F)c(N2Cc3cnc(-c4cn(C)nc4C)cc3N(CC3CC(=O)N(C)C3)C2=O)c1F` (centres unmarked) [Example 96, 3-(2,6-difluoro-3,5-dimethoxyphenyl)-7-(1,3-dimethyl-1H-pyrazol-4-yl)-1-((1-methyl-5-oxopyrrolidin-3-yl)methyl)-3,4-dihydropyrido[4,3-d]pyrimidin-2(1H)-one], the IC50 against FGFR4 (pre-incubated for 4 hours) is […]; against FGFR2 (pre-incubated for 4 hours) it was […]; on FGFR1 (setting [5]) it was […].
For the compound `CCn1cc(CN2C(=O)N(c3c(F)c(OC)cc(OC)c3F)Cc3cnc(-c4cnn(C)c4)cc32)cn1` [Example 145, 3-(2,6-difluoro-3,5-dimethoxyphenyl)-1-((1-ethyl-1H-pyrazol-4-yl)methyl)-7-(1-methyl-1H-pyrazol-4-yl)-3,4-dihydropyrido[4,3-d]pyrimidin-2(1H)-one], the half-maximal inhibitory concentration (IC50) against FGFR2 (setting [1]), on FGFR3 enzyme (setting [1]) and on FGFR1 (setting [2]) was < 10 nM in each case.
In the case of `COc1cc(OC)c(F)c(N2Cc3cnc(-c4cn(CCCN5CCOCC5)nc4C)cc3C3(CC3)C2=O)c1F` [Example 146, 2′-(2,6-difluoro-3,5-dimethoxyphenyl)-6′-(3-methyl-1-(3-morpholinopropyl)-1H-pyrazol-4-yl)-1′H-spiro[cyclopropane-1,4′-[2,7]naphthyridin]-3′(2′H)-one], the results for the IC50 at FGFR2 (pre-incubated for 4 hours), at FGFR3 enzyme (pre-incubated for 4 hours) and at FGFR1 (setting [5]) were […], […] and […], respectively.
The corresponding values for `COc1cc(OC)c(F)c(N2Cc3cnc(-c4cnn(C5(C#N)CCC5)c4C)cc3C3(CC3)C2=O)c1F` [Example 149, 1-(4-(2′-(2,6-difluoro-3,5-dimethoxyphenyl)-3′-oxo-2′,3′-dihydro-1′H-spiro[cyclopropane-1,4′-[2,7]naphthyridine]-6′-yl)-5-methyl-1H-pyrazol-1-yl)cyclobutanecarbonitrile] are < 10 nM, < 10 nM and […].
For `COc1cc(OC)c(F)c(N2Cc3cnc(-c4cnn(CCN5CCC(OC)CC5)c4)cc3C3(CC3)C2=O)c1F` [Example 152, 2′-(2,6-difluoro-3,5-dimethoxyphenyl)-6′-(1-(2-(4-methoxypiperidin-1-yl)ethyl)-1H-pyrazol-4-yl)-1′H-spiro[cyclopropane-1,4′-[2,7]naphthyridin]-3′(2′H)-one], in that order: […], […] and […].
In the case of `CCN1C(=O)N(c2c(F)c(OC)cc(OC)c2F)Cc2cnc(-c3cn(CC)nc3C)cc21` [Example 168, 3-(2,6-difluoro-3,5-dimethoxyphenyl)-1-ethyl-7-(1-ethyl-3-methyl-1H-pyrazol-4-yl)-3,4-dihydropyrido[4,3-d]pyrimidin-2(1H)-one], the IC50 against FGFR2 (setting [1]) was […]; on FGFR2 (pre-incubated for 4 hours), […]; on FGFR3 enzyme (setting [1]), […]; on FGFR3 enzyme (pre-incubated for 4 hours) it was […]; at FGFR1 (setting [4]), […]; against FGFR1 (setting [5]), […].
As to `CCN1C(=O)N(c2c(F)c(OC)cc(OC)c2F)Cc2cnc(-c3cnn(C)c3)cc21` [Example 169, 3-(2,6-difluoro-3,5-dimethoxyphenyl)-1-ethyl-7-(1-methyl-1H-pyrazol-4-yl)-3,4-dihydropyrido[4,3-d]pyrimidin-2(1H)-one], the IC50 on FGFR2 (setting [1]), against FGFR2 (pre-incubated for 4 hours), at FGFR3 enzyme (setting [1]), on FGFR3 enzyme (pre-incubated for 4 hours), on FGFR1 (setting [2]) and on FGFR1 (setting [3]) was < 10 nM throughout.
For the compound `CCNC(=O)c1ccc(-c2cc3c(cn2)CN(c2c(F)c(OC)cc(OC)c2F)C(=O)N3CC)cn1` [Example 175, 5-(3-(2,6-difluoro-3,5-dimethoxyphenyl)-1-ethyl-2-oxo-1,2,3,4-tetrahydropyrido[4,3-d]pyrimidin-7-yl)-N-ethylpicolinamide], the concentration for half-maximal inhibition (IC50) against FGFR2 (setting [1]) is […]; against FGFR2 (pre-incubated for 4 hours) it was […]; on FGFR3 enzyme (setting [1]) it was […]; on FGFR3 enzyme (pre-incubated for 4 hours) it was […]; against FGFR1 (setting [4]), […]; against FGFR1 (setting [5]) it was […].
On to `CCN1C(=O)N(c2c(F)c(OC)cc(OC)c2F)Cc2cnc(-c3ccc(C(=O)NC(C)C)nc3)cc21` [Example 178, 5-(3-(2,6-difluoro-3,5-dimethoxyphenyl)-1-ethyl-2-oxo-1,2,3,4-tetrahydropyrido[4,3-d]pyrimidin-7-yl)-N-isopropylpicolinamide], for which the IC50 against FGFR2 (pre-incubated for 4 hours) was […]; on FGFR3 enzyme (pre-incubated for 4 hours) it was […]; on FGFR1 (setting [5]), […].
In the case of `CCCNC(=O)c1ccc(-c2cc3c(cn2)CN(c2c(F)c(OC)cc(OC)c2F)C(=O)N3CC)cn1` [Example 179, 5-(3-(2,6-difluoro-3,5-dimethoxyphenyl)-1-ethyl-2-oxo-1,2,3,4-tetrahydropyrido[4,3-d]pyrimidin-7-yl)-N-propylpicolinamide], the IC50 against FGFR2 (pre-incubated for 4 hours) is […]; on FGFR3 enzyme (pre-incubated for 4 hours), […]; against FGFR1 (setting [5]), […].
As to `CCN1C(=O)N(c2c(F)c(OC)cc(OC)c2F)Cc2cnc(-c3ccc(N4CCOCC4)nc3)cc21` [Example 182, 3-(2,6-difluoro-3,5-dimethoxyphenyl)-1-ethyl-7-(6-morpholinopyridin-3-yl)-3,4-dihydropyrido[4,3-d]pyrimidin-2(1H)-one], the IC50 against FGFR2 (pre-incubated for 4 hours) was […]; on FGFR3 enzyme (pre-incubated for 4 hours), […]; at FGFR1 (setting [5]) it was […].
